#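 Assay format: 96-well plates, 48-hour exposure. GI50 marks 50% less growth. At the TGI there is no net growth.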
# Assays:
# Assay in all cases: NCI anticancer screen, dose series, 48 h
# U251 CNS = system: U251 CNS
# OVCAR-8 ovarian = system: OVCAR-8 ovarian
# NCI-H522 lung = system: NCI-H522 lung
# UACC-257 melanoma = system: UACC-257 melanoma
# K-562 leukemia = system: K-562 leukemia
# HCC-2998 colon = system: HCC-2998 colon
# HOP-92 NSCLC = system: HOP-92 NSCLC
# RXF 393 renal = system: RXF 393 renal
# 786-0 renal = system: 786-0 renal
# RPMI-8226 leukemia = system: RPMI-8226 leukemia
# ACHN renal = system: ACHN renal
# SR leukemia = system: SR leukemia
# LOX IMVI melanoma = system: LOX IMVI melanoma
# SK-MEL-2 melanoma = system: SK-MEL-2 melanoma
# HCT-15 colon = system: HCT-15 colon
# MCF7 breast = system: MCF7 breast
# SW-620 colon = system: SW-620 colon
# UO-31 renal = system: UO-31 renal
# EKVX NSCLC = system: EKVX NSCLC
# CCRF-CEM leukemia = system: CCRF-CEM leukemia
# MDA-MB-468 breast = system: MDA-MB-468 breast
# IGROV1 ovarian = system: IGROV1 ovarian
# SN12C renal = system: SN12C renal
# MDA-MB-231 breast = system: MDA-MB-231 breast
# MOLT-4 leukemia = system: MOLT-4 leukemia
# SK-MEL-5 melanoma = system: SK-MEL-5 melanoma
# SNB-19 CNS = system: SNB-19 CNS
# M14 melanoma = system: M14 melanoma
# OVCAR-3 ovarian = system: OVCAR-3 ovarian
# HS 578T breast = system: HS 578T breast
# TK-10 renal = system: TK-10 renal
# A498 renal = system: A498 renal
# MDA-MB-435 = system: MDA-MB-435
# SK-OV-3 ovarian = system: SK-OV-3 ovarian
# SF-295 CNS = system: SF-295 CNS
# T-47D breast = system: T-47D breast
# DU-145 prostate = system: DU-145 prostate
# NCI-H226 lung = system: NCI-H226 lung
# A549 NSCLC = system: A549 NSCLC
# CAKI-1 renal = system: CAKI-1 renal
# SNB-75 CNS = system: SNB-75 CNS
# HCT-116 colon = system: HCT-116 colon
# NCI/ADR-RES ovarian = system: NCI/ADR-RES ovarian
# HL-60(TB) leukemia = system: HL-60(TB) leukemia
# SK-MEL-28 melanoma = system: SK-MEL-28 melanoma
# MALME-3M melanoma = system: MALME-3M melanoma
# SF-539 CNS = system: SF-539 CNS
# NCI-H460 lung = system: NCI-H460 lung
# NCI-H23 lung = system: NCI-H23 lung
# COLO 205 colon = system: COLO 205 colon
# OVCAR-4 ovarian = system: OVCAR-4 ovarian
# SF-268 CNS = system: SF-268 CNS
# PC-3 prostate = system: PC-3 prostate
# BT-549 breast = system: BT-549 breast
# HOP-62 NSCLC = system: HOP-62 NSCLC
# KM12 colon = system: KM12 colon
# UACC-62 melanoma = system: UACC-62 melanoma
# HT29 colon = system: HT29 colon
# OVCAR-5 ovarian = system: OVCAR-5 ovarian
compound,measurement,setting,value
CCOc1ccccc1[C@H]1C(C(=O)c2ccc(Cl)cc2)C2(N[C@@H]1c1ccccc1)C(=O)Nc1ccc(Br)cc12 (stereo partly drawn),GI50,U251 CNS,5.72 µM
same,TGI,U251 CNS,13.9 µM
same,GI50,OVCAR-8 ovarian,6.06 µM
same,TGI,OVCAR-8 ovarian,19.3 µM
same,GI50,NCI-H522 lung,4.41 µM
same,TGI,NCI-H522 lung,13.4 µM
same,GI50,UACC-257 melanoma,5.86 µM
same,TGI,UACC-257 melanoma,17.6 µM
same,GI50,K-562 leukemia,7.41 µM
same,TGI,K-562 leukemia,> 34.5 µM
same,GI50,HCC-2998 colon,4.88 µM
same,TGI,HCC-2998 colon,13 µM
same,GI50,HOP-92 NSCLC,5.42 µM
same,TGI,HOP-92 NSCLC,14.6 µM
same,GI50,RXF 393 renal,3.8 µM
same,TGI,RXF 393 renal,9.29 µM
same,GI50,786-0 renal,5.76 µM
same,TGI,786-0 renal,17.6 µM
same,GI50,RPMI-8226 leukemia,6.69 µM
same,TGI,RPMI-8226 leukemia,> 34.5 µM
same,GI50,ACHN renal,7.25 µM
same,TGI,ACHN renal,> 34.5 µM
same,GI50,SR leukemia,5.17 µM
same,TGI,SR leukemia,16.3 µM
same,GI50,LOX IMVI melanoma,4.17 µM
same,TGI,LOX IMVI melanoma,8.44 µM
same,GI50,SK-MEL-2 melanoma,5.59 µM
same,TGI,SK-MEL-2 melanoma,12.4 µM
same,GI50,HCT-15 colon,7.51 µM
same,TGI,HCT-15 colon,33.3 µM
same,GI50,MCF7 breast,6.45 µM
same,TGI,MCF7 breast,29.9 µM
same,GI50,SW-620 colon,6.55 µM
same,TGI,SW-620 colon,19 µM
same,GI50,UO-31 renal,4.99 µM
same,TGI,UO-31 renal,20.8 µM
same,GI50,EKVX NSCLC,7.9 µM
same,TGI,EKVX NSCLC,> 34.5 µM
same,GI50,CCRF-CEM leukemia,22.8 µM
same,TGI,CCRF-CEM leukemia,> 34.5 µM
same,GI50,MDA-MB-468 breast,3.46 µM
same,TGI,MDA-MB-468 breast,12.6 µM
same,GI50,IGROV1 ovarian,4.88 µM
same,TGI,IGROV1 ovarian,21.2 µM
same,GI50,SN12C renal,4.46 µM
same,TGI,SN12C renal,9.03 µM
same,GI50,MDA-MB-231 breast,4.04 µM
same,TGI,MDA-MB-231 breast,8.87 µM
same,GI50,MOLT-4 leukemia,4.46 µM
same,TGI,MOLT-4 leukemia,19.8 µM
same,GI50,SK-MEL-5 melanoma,5.41 µM
same,TGI,SK-MEL-5 melanoma,10.8 µM
same,GI50,SNB-19 CNS,9.14 µM
same,TGI,SNB-19 CNS,> 34.5 µM
same,GI50,M14 melanoma,5.55 µM
same,TGI,M14 melanoma,14.5 µM
same,GI50,OVCAR-3 ovarian,5.07 µM
same,TGI,OVCAR-3 ovarian,12.8 µM
same,GI50,HS 578T breast,4.77 µM
same,TGI,HS 578T breast,15.2 µM
same,GI50,TK-10 renal,8.22 µM
same,TGI,TK-10 renal,28.5 µM
same,GI50,A498 renal,4.45 µM
same,TGI,A498 renal,13.7 µM
same,GI50,MDA-MB-435,5.55 µM
same,TGI,MDA-MB-435,12.7 µM
same,GI50,SK-OV-3 ovarian,9.66 µM
same,TGI,SK-OV-3 ovarian,> 34.5 µM
same,GI50,SF-295 CNS,5.79 µM
same,TGI,SF-295 CNS,21.6 µM
same,GI50,T-47D breast,4.05 µM
same,TGI,T-47D breast,> 34.5 µM
same,GI50,DU-145 prostate,8.88 µM
same,TGI,DU-145 prostate,32.2 µM
same,GI50,NCI-H226 lung,4.32 µM
same,TGI,NCI-H226 lung,10.6 µM
same,GI50,A549 NSCLC,6.58 µM
same,TGI,A549 NSCLC,> 34.5 µM
same,GI50,CAKI-1 renal,2.92 µM
same,TGI,CAKI-1 renal,> 34.5 µM
same,GI50,SNB-75 CNS,4.2 µM
same,TGI,SNB-75 CNS,25 µM
same,GI50,HCT-116 colon,4.76 µM
same,TGI,HCT-116 colon,11 µM
same,GI50,NCI/ADR-RES ovarian,5.25 µM
same,TGI,NCI/ADR-RES ovarian,13 µM
same,GI50,HL-60(TB) leukemia,4.77 µM
same,TGI,HL-60(TB) leukemia,16.3 µM
same,GI50,SK-MEL-28 melanoma,6.28 µM
same,TGI,SK-MEL-28 melanoma,15.7 µM
same,GI50,MALME-3M melanoma,5.7 µM
same,TGI,MALME-3M melanoma,12.1 µM
same,GI50,SF-539 CNS,7.93 µM
same,TGI,SF-539 CNS,20.2 µM
same,GI50,NCI-H460 lung,5.11 µM
same,TGI,NCI-H460 lung,10.8 µM
same,GI50,NCI-H23 lung,5.43 µM
same,TGI,NCI-H23 lung,13.8 µM
same,GI50,COLO 205 colon,5.35 µM
same,TGI,COLO 205 colon,10.6 µM
same,GI50,OVCAR-4 ovarian,8.09 µM
same,TGI,OVCAR-4 ovarian,> 34.5 µM
same,GI50,SF-268 CNS,6.2 µM
same,TGI,SF-268 CNS,24.4 µM
same,GI50,PC-3 prostate,3.6 µM
same,TGI,PC-3 prostate,> 34.5 µM
same,GI50,BT-549 breast,5.3 µM
same,TGI,BT-549 breast,10.8 µM
same,GI50,HOP-62 NSCLC,5.62 µM
same,TGI,HOP-62 NSCLC,13.5 µM
same,GI50,KM12 colon,6 µM
same,TGI,KM12 colon,20.4 µM
same,GI50,UACC-62 melanoma,3.45 µM
same,TGI,UACC-62 melanoma,7.98 µM
same,GI50,HT29 colon,4.46 µM
same,TGI,HT29 colon,10.1 µM
same,GI50,OVCAR-5 ovarian,7 µM
same,TGI,OVCAR-5 ovarian,24.5 µM

# — PubChem BioAssay (NCI)
